Assay results taken from patent US11046682B2, “Fused heterocyclic derivatives, their preparation methods thereof and medical uses thereof” (Beijing Innocare Pharma Tech Co., Ltd., priority 2016, dated 2021).

How the values were obtained:
[1] = molecular target: full-length human recombinant IDO1 protein (Homo sapiens (Human), UniProt P14902); experiment: IDO enzyme activity inhibition testing (Ehrlich method); type: biochemical; details: OD490, 10 concentration points
Description: IDO Enzyme Activity Inhibition Testing
The effects of the compounds of the invention on the activity of indoleamine 2,3-dioxygenase (IDO) were evaluated by the Ehrlich method.
The experimental principle is summarized as follows: IDO1 catalyzes oxidation of tryptophan to form N-formyl kynurenine, N-formyl kynurenine is subsequently hydrolyzed by trichloroacetic acid to form kynurenine, and kynurenine further reacts with the Ehrlich reagent to make the solution yellow. The absorbance at 490 nm (OD490) is directly proportional to the activity of IDO1.
The experimental methods are summarized as follows:
The reaction buffer was 50 mM 2-(N-morpholine)ethanesulfonic acid-hydrate (Sigma, Cat. No. 69889); the full-length human recombinant IDO1 protein was purchased from the Tsinghua Protein Research Technology Center and diluted to a 33.6 ng/μL enzyme solution with the reaction buffer; the substrate solution was prepared with the reaction buffer containing 20 mM vitamin C (Sigma, Cat. No. A5960), 150 μM L-tryptophan (Sigma, Cat. No. T0254), 2250 UI/mL catalase (Sigma, Cat. No. C30), and 10 μM methylene blue (Sigma, Cat. No. 28514); the reaction termination solution was 30% (mass/volume) trichloroacetic acid (Sigma, Cat. No. T9159) aqueous solution; the Ehrlich reagent was 2% p-dimethylaminobenzaldehyde (Sigma, Cat. No. 156477) acetic acid (Macklin, Cat. No. A801295) solution.
A compound was dissolved in DMSO (Sigma, Cat. No. D5879) and diluted to 1 mM, then serially diluted 3-fold with DMSO to a minimum concentration of 50.8 nM, and each concentration was further diluted 25-fold with the reaction buffer. If a compound's IC50 value was very low, the initial concentration of the compound was decreased.
A 10-μL compound solution and a 10-μL enzyme solution were added to a 96-well plate (Sigma, Cat. No. CLS3695), mixed well and incubated at room temperature. After 15 min, a 20-μL substrate solution was added and incubated at 60° C. after mixing for 30 min. The reaction plate was equilibrated to room temperature and 60 μL of the Ehrlich reagent was added. After incubation for 15 min, OD490 of each well was measured.
In this experiment, OD490 without enzyme was referred as OD490100% inhibition, and OD490 with enzyme added but without compound was referred as OD4900% inhibition.
(§1) Where Y is the percentage of inhibition, Bottom is the bottom platform value of the S-curve, Top is the top platform value of the S-curve, X is the logarithm of the concentration of the test compound, and slope factor is the slope coefficient of the curve.

[2] = molecular target: indoleamine 2,3-dioxygenase (IDO) in Hela cells (Homo sapiens (Human), UniProt P14902); experiment: IDO intracellular activity inhibition testing in Hela cells induced by IFN-γ (Ehrlich method); type: cell-based; details: 24 hours, OD490, 8 concentration points
Description: IDO Intracellular Activity Inhibition Testing
The effects of the compounds of the invention on the activity of indoleamine 2,3-dioxygenase (IDO) in Hela cells induced by IFN-γ were evaluated by the Ehrlich method.
The experimental principle is summarized as follows: IDO expression is low in Hela cells under no induction, but a certain concentration of IFN-γ can induces Hela cells to express IDO which catalyzes the conversion of tryptophan to N-formyl kynurenine, which in turn is hydrolyzed by trichloroacetic acid to give kynurenine. Kynurenine then reacts with the Ehrlich reagent to give a color enabling detection of the IDO activity. The absorbance at 490 nm (OD490) is directly proportional to the IDO activity.
A compound was dissolved in DMSO (Sigma, Cat. No. D5879) and diluted to 5 mM, then serially diluted 3-fold with DMSO to a minimum concentration of 2.29 μM, and each concentration point was diluted 50-fold with FBS-free DMEM medium (ThermoFisher, Cat. No. 11995073). If a compound's IC50 value is very low, the initial concentration of the compound was lowered.
Hela cells (ATCC, Cat. No. CCL-2) were cultured in DMEM complete medium containing 10% FBS (GBICO, Cat. No. 10099-141) and 100 U/mL streptomycin mixture (ThermoFisher, Cat. No. 15140122). When covering the culture vessel 80-90%, the cells were digested with 0.25% trypsin (containing EDTA) (ThermoFisher, Cat. No. 25200056) and planted in 96-well plates (Corning, Cat. No. 3599), 20000 cells per well (80 μL of DMEM medium). The plates were then incubated in a 37° C., 5% CO2 incubator overnight (18-20 hours).
After overnight, 10 μL of DMEM-diluted compound and 10 μL of 500 ng/mL of INF-γ were added to each well, and gently mixed and the 96-well plates were placed in a 37° C., 5% CO2 incubator for further culturing. After 24 hours, they were removed and centrifuged at room temperature 2000×g for 5 min, and then the supernatants were transferred to reaction plates (Sigma, Cat. No. CLS3695). One-twentieth of trichloroacetic acid (Sigma, Cat. No. T9159) was added and incubated at 60° C. After 30 min, the reaction plates were centrifuged at room temperature 2000×g for 5 min. The supernatants were transferred to clean reaction plates, an equal volume of the Ehrlich reagent was added, mixed, and incubated at room temperature. After 15 min, OD490 of each well was measured.
In this experiment, OD490 without IFN-γ but with DMEM medium replacement was referred as OD490100% inhibition. OD490 with IFN-γ and 0.2% DMSO was referred as OD4900% inhibition. The percentage of inhibition on the IDO1 activity in Hela cells by a compound was calculated using the following formula: Inhibition %=100−100*(OD490compound−OD490100% inhibition)/(OD4900% inhibition−OD490100% inhibition)
as §1

full-length human recombinant IDO1 protein, sequence (P14902 whole entry): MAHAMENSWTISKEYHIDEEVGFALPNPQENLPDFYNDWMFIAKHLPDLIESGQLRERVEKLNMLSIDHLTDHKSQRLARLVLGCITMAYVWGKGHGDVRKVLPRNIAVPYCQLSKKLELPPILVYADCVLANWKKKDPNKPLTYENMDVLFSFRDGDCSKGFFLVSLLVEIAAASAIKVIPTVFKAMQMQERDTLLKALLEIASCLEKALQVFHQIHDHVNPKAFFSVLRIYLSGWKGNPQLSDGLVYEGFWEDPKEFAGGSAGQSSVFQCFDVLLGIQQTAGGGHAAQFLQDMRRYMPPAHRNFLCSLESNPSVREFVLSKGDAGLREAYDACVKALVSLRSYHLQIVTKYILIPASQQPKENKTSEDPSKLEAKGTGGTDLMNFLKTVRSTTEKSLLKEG
indoleamine 2,3-dioxygenase (IDO) in Hela cells, sequence (P14902 whole entry): as above

N#Cc1ccc(NC(=O)Nc2cccc3cncn23)cc1 [Compound 1, 1-(4-cyanophenyl)-3-(imidazo[1,5-a]pyridin-5-yl)urea]
IC50 [1]: 250 to 1500 nM

COc1cc(NC(=O)Nc2c(-c3ccccc3)ccc3cncn23)ccc1C#N [Compound 34, 1-(4-cyano-3-methoxyphenyl)-3-(6-phenylimidazo[1,5-a]pyridin-5-yl)urea]
IC50 [1]: < 250 nM

N#Cc1ccc(NC(=O)Cc2cc(Cl)cc3cncn23)cc1 [Compound 41, 2-(7-chloroimidazo[1,5-a]pyridin-5-yl)-N-(4-cyanophenyl)acetamide]
IC50 [1]: < 250 nM

CC(C)CNCc1c(-c2ccccc2)ccc2cncn12 [Compound 61, 2-methyl-N-((6-phenylimidazo[1,5-a]pyridin-5-yl)methyl)propan-1-amine]
IC50 [1]: 250 to 1500 nM

N#Cc1ccc(NC(=O)C(O)c2c(-c3ccccc3)ccc3cncn23)cc1 (centres unmarked) [Compound 64, N-(4-cyanophenyl)-2-hydroxy-2-(6-phenylimidazo[1,5-a]pyridin-5-yl)acetamide]
IC50 [2]: < 1000 nM

NC(=O)c1ccc(NC(=O)Nc2c(-c3ccccc3)ccc3cncn23)cc1 [Compound 29, 4-(3-(6-phenylimidazo[1,5-a]pyridin-5-yl)ureido)benzamide]
IC50 [1]: 250 to 1500 nM

N#CC1CCC(NC(=O)Nc2c(-c3ccccc3)ccc3cncn23)CC1 (centres unmarked) [Compound 36, 1-(4-cyanocyclohexyl)-3-(6-phenylimidazo[1,5-a]pyridin-5-yl)urea]
IC50 [2]: < 1000 nM

O=C(Cc1c(-c2ccccc2)ccc2cncn12)Nc1ccc(C(=O)N2CCOCC2)cc1 [Compound 47, N-(4-(morpholine-4-carbonyl)phenyl)-2-(6-phenylimidazo[1,5-a]pyridin-5-yl)acetamide]
IC50 [1]: < 250 nM

CNC(=O)c1ccc(NC(=O)Nc2c(-c3ccccc3)ccc3cncn23)cc1 [Compound 28, N-methyl-4-(3-(6-phenylimidazo[1,5-a]pyridin-5-yl)ureido)benzamide]
IC50 [1]: 250 to 1500 nM

CCOc1ccc2cncn2c1NC(=O)Nc1ccc(C#N)cc1 [Compound 16, 1-(4-cyanophenyl)-3-(6-ethoxyimidazo[1,5-a]pyridin-5-yl)urea]
IC50 [1]: 250 to 1500 nM

COc1cc(C#N)ccc1NC(=O)Nc1c(-c2ccccc2)ccc2cncn12 [Compound 35, 1-(4-cyano-2-methoxyphenyl)-3-(6-phenylimidazo[1,5-a]pyridin-5-yl)urea]
IC50 [1]: < 250 nM

N#Cc1ccc(NC(=O)Nc2c(-c3ccccc3)ccc3cncn23)nc1 [Compound 33, 1-(5-cyanopyridin-2-yl)-3-(6-phenylimidazo[1,5-a]pyridin-5-yl)urea]
IC50 [1]: 250 to 1500 nM

COCCn1cc(-c2ccc(NC(=O)Cc3c(-c4ccccc4)ccc4cncn34)cc2)cn1 [Compound 52, N-(4-(1-(2-methoxyethyl)-1H-pyrazol-4-yl)phenyl)-2-(6-phenylimidazo[1,5-a]pyridin-5-yl)acetamide]
IC50 [1]: < 250 nM

c1ccc(CNCc2c(-c3ccccc3)ccc3cncn23)cc1 [Compound 58, N-benzyl-1-(6-phenylimidazo[1,5-a]pyridin-5-yl)methanamine]
IC50 [1]: 250 to 1500 nM

N#Cc1ccc(NC(=O)Cc2c(-c3ccccc3)ccc3cncn23)c(CO)c1 [Compound 40, N-(4-cyano-2-(hydroxymethyl)phenyl)-2-(6-phenylimidazo[1,5-a]pyridin-5-yl)acetamide]
IC50 [1]: 250 to 1500 nM

N#Cc1ccc(N(O)C(=O)Cc2c(-c3ccccc3)ccc3cncn23)cc1 [Compound 45, N-(4-cyanophenyl)-N-hydroxy-2-(6-phenylimidazo[1,5-a]pyridin-5-yl)acetamide]
IC50 [1]: < 250 nM

N#Cc1ccc(NC(=O)Nc2c(F)ccc3cncn23)cc1 [Compound 14, 1-(4-cyanophenyl)-3-(6-fluoroimidazo[1,5-a]pyridin-5-yl)urea]
IC50 [1]: < 250 nM

COc1ccc2cncn2c1NC(=O)Nc1ccc(C#N)cc1 [Compound 15, 1-(4-cyanophenyl)-3-(6-methoxyimidazo[1,5-a]pyridin-5-yl)urea]
IC50 [1]: 250 to 1500 nM

O=C(Nc1ccc(C(=O)O)cc1)Nc1c(-c2ccccc2)ccc2cncn12 [Compound 27, 4-(3-(6-phenylimidazo[1,5-a]pyridin-5-yl)ureido)benzoic acid]
IC50 [1]: 250 to 1500 nM

c1ccc(-c2ccc3cncn3c2CNCC2CCCCC2)cc1 [Compound 59, 1-cyclohexyl-N-((6-phenylimidazo[1,5-a]pyridin-5-yl)methyl)methanamine]
IC50 [1]: 250 to 1500 nM

CC(C)(O)CNCc1c(-c2ccccc2)ccc2cncn12 [Compound 62, 2-methyl-1-(((6-phenylimidazo[1,5-a]pyridin-5-yl)methyl)amino)propan-2-ol]
IC50 [1]: < 250 nM

CN(Cc1ccc(C#N)cc1)Cc1c(-c2ccccc2)ccc2cncn12 [Compound 55, 4-((methyl((6-phenylimidazo[1,5-a]pyridin-5-yl)methyl)amino)methyl)benzonitrile]
IC50 [1]: 250 to 1500 nM

O=C(Nc1ccc(C(=O)NCCO)cc1)Nc1c(-c2ccccc2)ccc2cncn12 [Compound 30, N-(2-hydroxyethyl)-4-(3-(6-phenylimidazo[1,5-a]pyridin-5-yl)ureido)benzamide]
IC50 [1]: 250 to 1500 nM

N#Cc1ccc(CNCc2c(-c3ccccc3)ccc3cncn23)cc1 [Compound 42, 4-((((6-phenylimidazo[1,5-a]pyridin-5-yl)methyl)amino)methyl)benzonitrile]
IC50 [1]: < 250 nM

O=C(Nc1ccc(Cl)cc1)Nc1cccc2cncn12 [Compound 3, 1-(4-chlorophenyl)-3-(imidazo[1,5-a]pyridin-5-yl)urea]
IC50 [1]: 250 to 1500 nM

N#Cc1ccc(NC(=O)Nc2c(-c3ccccc3)ccc3cncn23)cn1 [Compound 32, 1-(6-cyanopyridin-3-yl)-3-(6-phenylimidazo[1,5-a]pyridin-5-yl)urea]
IC50 [1]: < 250 nM

N#Cc1ccc(NC(=O)Cc2cc(Cl)cc3[nH]ncc23)cc1 [Compound 63, 2-(6-chloro-1H-indazol-4-yl)-N-(4-cyanophenyl)acetamide]
IC50 [1]: 250 to 1500 nM

COC1CCN(C(=O)c2ccc(NC(=O)Cc3c(-c4ccccc4)ccc4cncn34)cc2)CC1 [Compound 48, N-(4-(4-methoxypiperidine-1-carbonyl)phenyl)-2-(6-phenylimidazo[1,5-a]pyridin-5-yl)acetamide]
IC50 [1]: < 250 nM

N#Cc1ccc(NC(=O)Nc2cc(Cl)cc3cncn23)cc1 [Compound 20, 1-(7-chloroimidazo[1,5-a]pyridin-5-yl)-3-(4-cyanophenyl)urea]
IC50 [1]: < 250 nM
